US12195466B2, “Polyproline mimetics of proline-derived module-15” (Forschungsverbund Berlin e.V., priority 2018, dated 2025)

Columns and labels:
EnaH-EVH1 domain [1] = molecular target: T1, EnaH-EVH1 domain (Homo sapiens (Human), UniProt Q8N8S7); assay: Binding affinity to the EnaH-EVH1 domain by fluorescence titration (FT); conditions: for Kd / FT ΔG^0 (free energy): EnaH-EVH1 domain
Description: (§1) The binding data of the ligands to the domain was determined by means of isothermal titration calorimetry (ITC) or fluorescence titration (FT) and presented in the form of the dissociation constant (Kd) or the free energy (AGO). A stronger binding of the ligand to the domain is expressed by a smaller Kd value or a correspondingly more negative AGO value. The relationship between the two parameters is shown in equation (a): […]

Metabolic stability = type: in vitro ADME; conditions: comparison among derivatives 44, 242 and 113
VASP = VASP (Homo sapiens (Human), UniProt P50552); conditions: cited from earlier work
VASP, sequence (P50552 whole entry, species assumed): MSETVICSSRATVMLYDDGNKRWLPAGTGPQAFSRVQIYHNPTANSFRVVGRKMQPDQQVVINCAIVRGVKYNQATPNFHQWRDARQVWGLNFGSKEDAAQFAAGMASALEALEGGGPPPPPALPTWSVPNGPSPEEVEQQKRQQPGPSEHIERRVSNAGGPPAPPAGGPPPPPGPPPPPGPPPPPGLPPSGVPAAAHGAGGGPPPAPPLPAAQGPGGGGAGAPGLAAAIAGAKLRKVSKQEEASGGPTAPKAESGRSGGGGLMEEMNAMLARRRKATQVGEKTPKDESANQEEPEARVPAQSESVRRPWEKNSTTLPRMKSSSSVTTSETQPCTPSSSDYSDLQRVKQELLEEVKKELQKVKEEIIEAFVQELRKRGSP

Cell permeability = type: in vitro ADME; conditions: comparison among derivatives 44, 242 and 113
[2] = tested on: highly metastatic colorectal and breast cancer cells; conditions: cited from earlier work
[3] = esterification of the free acid 43; cited from earlier work
EnaH-EVH1 domain [4] = molecular target: T1, EnaH-EVH1 domain; assay: Binding affinity to the EnaH-EVH1 domain by isothermal titration calorimetry (ITC); conditions: standard errors in brackets
Description: as §1

Ena/VASP-EVH1 domain = conditions: cited from earlier work
Ena-EVH1 = Ena-EVH1 (Homo sapiens (Human), UniProt Q8N8S7); conditions: cited from earlier work
Ena-EVH1, sequence (Q8N8S7 1-111): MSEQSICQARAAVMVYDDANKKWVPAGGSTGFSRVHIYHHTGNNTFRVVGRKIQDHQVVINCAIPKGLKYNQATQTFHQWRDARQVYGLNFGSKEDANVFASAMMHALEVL

VASP-EVH1 = VASP-EVH1 (Homo sapiens (Human), UniProt P50552); conditions: cited from earlier work
VASP-EVH1, sequence (P50552 2-113): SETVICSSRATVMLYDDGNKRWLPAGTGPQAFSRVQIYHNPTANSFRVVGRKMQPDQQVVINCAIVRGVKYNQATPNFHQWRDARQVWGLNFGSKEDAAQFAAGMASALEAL

EVL-EVH1 = EVL-EVH1 (Homo sapiens (Human), UniProt Q9UI08); conditions: cited from earlier work
EVL-EVH1, sequence (Q9UI08 1-112): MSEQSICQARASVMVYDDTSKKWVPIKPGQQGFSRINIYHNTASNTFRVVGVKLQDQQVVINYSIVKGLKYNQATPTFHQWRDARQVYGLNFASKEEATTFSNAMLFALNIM

[5] = fluorescence titration, Table 3, read-out: KD

T1 sequence (Q8N8S7 1-111): as the sequence (Q8N8S7 1-111) above

## CC[C@@H]1C=C[C@H]2CCN(C(=O)[C@@H]3CC[C@@H]4C=C[C@H]5CCN(C(=O)[C@H](Cc6ccccc6Cl)NC(C)=O)[C@@H]5C(=O)N43)[C@@H]2C(=O)N1CC(=O)OC [Ac-[2Cl-Phe]-[ProM-1]-[ProM-15]-OMe]
EnaH-EVH1 domain [1]; [5]
  Kd: 0.9 µM

## COC(=O)CN1C(=O)[C@@H]2[C@@H](C=C[C@H]1CC(C)C)CCN2C(=O)[C@@H]1CC[C@@H]2C=C[C@H]3CCN(C(=O)[C@H](Cc4ccccc4Cl)NC(C)=O)[C@@H]3C(=O)N21 [Ac-[2Cl-Phe]-[ProM-1]-[ProM-17]-OMe]
EnaH-EVH1 domain [1]; [5]
  Kd: 2.2 µM

## CCC[C@@H]1C=C[C@H]2CCN(C(=O)[C@@H]3CC[C@@H]4C=C[C@H]5CCN(C(=O)[C@H](Cc6ccccc6Cl)NC(C)=O)[C@@H]5C(=O)N43)[C@@H]2C(=O)N1CC(=O)OC [Ac-[2Cl-Phe]-[ProM-1]-[ProM-21]-OMe]
EnaH-EVH1 domain [1]; [5]
  Kd: 2.1 µM

## COC(=O)CN1C(=O)[C@@H]2[C@@H](C=C[C@H]1CC(C)C)CCN2C(=O)[C@@H]1CC[C@H]2C=C[C@]3(CCCN3C(=O)[C@H](Cc3ccccc3Cl)NC(C)=O)C(=O)N21 [Ac-[2Cl-Phe]-[ProM-2]-[ProM-17]-OMe]
EnaH-EVH1 domain [1]; [5]
  Kd: 0.54 µM

## CCC[C@@H]1C=C[C@H]2CCN(C(=O)[C@@H]3CC[C@H]4C=C[C@]5(CCCN5C(=O)[C@H](Cc5ccccc5Cl)NC(C)=O)C(=O)N43)[C@@H]2C(=O)N1CC(=O)OC [Ac-[2Cl-Phe]-[ProM-2]-[ProM-21]-OMe]
EnaH-EVH1 domain [1]; [5]
  Kd: 0.26 µM

## CCOC(=O)[C@@H]1CC[C@@H]2C=C[C@H]3CCN(C(=O)[C@@H]4CC[C@H]5C=C[C@]6(CCCN6C(=O)[C@H](Cc6ccccc6Cl)NC(C)=O)C(=O)N54)[C@@H]3C(=O)N21 [Ligand 44, Ac-[L-2Cl—F]-[ProM-2]-[ProM-1]-OEt, reference compound]
Metabolic stability
  metabolic stabilities: almost identical
VASP
  delocalization of VASP from focal adhesions and leading edge: delocalizes the protein VASP from focal adhesions
Cell permeability
  cell permeabilities: almost identical
EnaH-EVH1 domain [1]; standard errors in brackets
  FT ΔG^0 (free energy): −30.8 (0.2) kJ/mol
[2]
  motility of cancer cells: drastically reduces the motility
[3]
  cell permeability: cell-permeable

## CC(=O)N[C@@H](Cc1ccccc1Cl)C(=O)N1CCC[C@]12C=C[C@@H]1CC[C@@H](C(=O)N3CC[C@@H]4C=C[C@H]5CC[C@@H](C(N)=O)N5C(=O)[C@H]43)N1C2=O [Ligand 113, Ac-[L-2Cl—F]-[ProM-2]-[ProM-1]-NH2]
Metabolic stability
  metabolic stabilities: almost identical
Cell permeability
  cell permeabilities: almost identical
EnaH-EVH1 domain [4]
  Kd: 7 µM

## COC(=O)[C@@H]1CC[C@@H]2C=C[C@H]3CCN(C(=O)[C@@H]4CC[C@H]5C=C[C@]6(CCCN6C(=O)[C@H](Cc6ccccc6Cl)NC(C)=O)C(=O)N54)[C@@H]3C(=O)N21 [Ligand 242, Ac-[L-2Cl—F]-[ProM-2]-[ProM-1]-OMe]
Metabolic stability
  metabolic stabilities: almost identical
Cell permeability
  cell permeabilities: almost identical
EnaH-EVH1 domain [1]; standard errors in brackets
  FT ΔG^0 (free energy): −30.6 (0.4) kJ/mol

## CC[C@@H]1C=C[C@H]2CCN(C(=O)[C@@H]3CC[C@H]4C=C[C@]5(CCCN5C(=O)[C@H](Cc5ccccc5Cl)NC(C)=O)C(=O)N43)[C@@H]2C(=O)N1CC(=O)OC [Ligand 247, Ac-[L-2Cl—F]-[ProM-2]-[R,S,R-Gly-ProM-15]-OMe]
EnaH-EVH1 domain [1]; [5]
  Kd: 0.47 µM
EnaH-EVH1 domain [1]; standard errors in brackets
  FT ΔG^0 (free energy): −36.1 (0.1) kJ/mol
EnaH-EVH1 domain [1]; standard errors in brackets, read-out: FT Kd
  Kd: 0.47 µM
EnaH-EVH1 domain [1]; compared with the ProM-1-based predecessor ligands 44 and 242
  gain in affinity by a factor: 9-10

## CCOC(=O)[C@@H]1C[C@@H](C)[C@@H]2C=C[C@H]3CCN(C(=O)[C@@H]4CC[C@H]5C=C[C@]6(CCCN6C(=O)[C@H](Cc6ccccc6Cl)NC(C)=O)C(=O)N54)[C@@H]3C(=O)N12 [Ligand 251, Ac-[L-2Cl—F]-[ProM-2]-[ProM-9]-OEt, reference compound]
EnaH-EVH1 domain [1]; standard errors in brackets
  FT ΔG^0 (free energy): −36.6 (0.3) kJ/mol

## Ac-SFEFPPPPTEDEL-NH2 [Ligand 40]
Ena/VASP-EVH1 domain
  binding to the Ena/VASP-EVH1 domain (range in words): micromolar range

## Ac-[L-2CI-F]-[ProM-2]-[ProM-1]-OH [Ligand 43]
Ena-EVH1
  increased binding affinity compared to the natural peptide 42: 180 fold
VASP-EVH1
  increased binding affinity compared to the natural peptide 42: 280 fold
EVL-EVH1
  increased binding affinity compared to the natural peptide 42: 180 fold
